The target of the first assay is purified LasB protein from P. aeruginosa (Pseudomonas aeruginosa (strain ATCC 15692 / DSM 22644 / CIP 104116 / JCM 14847 / LMG 12228 / 1C / PRS 101 / PAO1), UniProt P14756). Briefly: Fluorometric assay to determine Ki (Abz-Ala-Gly-Leu-Ala-p-Nitro-Benzyl-Amide substrate). Conditions: 250 μM substrate, Ki calculated from IC50. The format is biochemical. Here is the method: Experiments were therefore conducted (1) to measure the potency of inhibition of compounds of the invention against purified Pseudomonas aeruginosa LasB enzyme and also experiments were conducted (2) to measure the ability of compounds of the invention to inhibit LasB-catalysed elastin degradation. The first assay uses a commercial fluorescent synthetic peptide and purified LasB enzyme. The LasB hydrolysis kinetics are measured allowing the determination of the IC50 and Ki of the inhibitors; the second is a more physiological assay using dialysed Pseudomonas aeruginosa supernatant as source of enzyme, plus its natural substrate Elastin. It is an “end point assay” that determines the percentage of LasB inhibition by each compound for one particular time point and inhibitor concentration. Technical details are described below:
Fluorometric Assay to Determine Ki
This assay uses commercially available substrate (Abz-Ala-Gly-Leu-Ala-p-Nitro-Benzyl-Amide (Ex: 340 nm, Em: 415 nm) from Peptide International) and purified LasB protein from P. aeruginosa (provided by Merck or Charles River Laboratories). It is performed to determine LasB elastase activity and assess compound inhibition in 96-well plate format. All compounds of Formula (I) were assessed using the method described below.
Method: 10 to 140 ng/ml purified LasB is incubated with 250 μM Abz-Ala-Gly-Leu-Ala-p-Nitro-Benzyl-Amide in 50 mM Tris-HCl pH 7.4, 2.5 mM CaCl2), 0.01% of Triton X100 at 37° C. LasB activity (corresponding to fluorescence emission induced by substrate hydrolysis) is measured over 30 min at 37° C. with a fluorescence plate reader such as the Perkin Elmer Envision or similar. Different range of inhibitor concentrations are routinely assessed depending of inhibitor potency from 0.0016 to 200 μM (2-fold dilutions series) in order to determine IC50.
The equation used to calculate the Ki from IC50 is: Ki=IC50/(1+([S]/Km)) where [S]=250 μM and Km=214 μM.
purified LasB protein from P. aeruginosa, sequence (P14756 198-498): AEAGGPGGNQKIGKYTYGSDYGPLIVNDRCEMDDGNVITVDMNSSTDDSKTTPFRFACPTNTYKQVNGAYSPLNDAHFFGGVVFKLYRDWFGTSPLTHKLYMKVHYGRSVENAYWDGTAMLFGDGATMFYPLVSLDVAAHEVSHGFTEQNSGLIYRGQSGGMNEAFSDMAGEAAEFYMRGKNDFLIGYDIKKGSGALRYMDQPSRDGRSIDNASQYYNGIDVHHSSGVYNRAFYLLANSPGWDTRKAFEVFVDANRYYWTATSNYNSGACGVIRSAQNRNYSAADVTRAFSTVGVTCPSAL
In general, Ki refers to a measure of affinity in units of concentration, obtained from inhibition or displacement. Consider `COc1cc2sc(CNC(=O)C3(CC(=O)O)Cc4ccccc4C3)nc2cc1OCCN1CCOCC1` [Example 9, 2-[2-[[6-methoxy-5-(2-morpholinoethoxy)-1,3-benzothiazol-2-yl]methylcarbamoyl]indan-2-yl]acetic Acid], for which the Ki was less than 50 nM.
On the same count and under the same terms, the value for `COc1cc2sc(CNC(=O)C3(CC(=O)O)Cc4cc(F)c(F)cc4C3)nc2cc1OCCN1CCOCC1` [Example 10, 2-[5,6-difluoro-2-[[6-methoxy-5-(2-morpholinoethoxy)-1,3-benzothiazol-2-yl]methylcarbamoyl]indan-2-yl]acetic Acid] was less than 50 nM; that for `COc1cc2sc(CNC(=O)C3(CC(=O)O)Cc4cc(F)c(F)cc4C3)nc2cc1OCC1CCN(C)CC1` [Example 11, 2-[5,6-difluoro-2-[[6-methoxy-5-[(1-methyl-4-piperidyl)methoxy]-1,3-benzothiazol-2-yl]methylcarbamoyl]indan-2-yl]acetic Acid] was less than 50 nM.
With `COc1cc2sc(CNC(=O)C3(CC(=O)[O-])Cc4ccccc4C3)nc2cc1OCCC[N+]1(C)CCOCC1` [Example 16, 2-[2-[[6-methoxy-5-[3-(4-methylmorpholin-4-ium-4-yl)propoxy]-1,3-benzothiazol-2-yl]methylcarbamoyl]indan-2-yl]acetate], the Ki was less than 50 nM.
Same read-out and setting: the value for `CC[N+](C)(CC)CCCOc1cc2nc(CNC(=O)C3(CC(=O)[O-])Cc4ccccc4C3)sc2cc1OC` [Example 18, 2-[2-[[5-[3-[diethyl(methyl)ammonio]propoxy]-6-methoxy-1,3-benzothiazol-2-yl]methylcarbamoyl]indan-2-yl]acetate] was less than 50 nM.
Still for that read-out and setting: the value for `COc1cc2sc(CNC(=O)C3(CC(=O)[O-])Cc4cc(F)c(F)cc4C3)nc2cc1OCCC[N+]1(C)CCCC1` [Example 19, 2-[5,6-difluoro-2-[[6-methoxy-5-[3-(1-methylpyrrolidin-1-ium-1-yl)propoxy]-1,3-benzothiazol-2-yl]methylcarbamoyl]indan-2-yl]acetate] was less than 50 nM; that for `COc1cc2sc(CNC(=O)C3(CC(=O)[O-])Cc4ccccc4C3)nc2cc1OCCC[N+](C)(C)CCO` [Example 20, 2-[2-[[5-[3-[2-hydroxyethyl(dimethyl)ammonio]propoxy]-6-methoxy-1,3-benzothiazol-2-yl]methylcarbamoyl]indan-2-yl]acetate] was less than 50 nM.
Same read-out and setting: the value for `COc1cc2sc(CNC(=O)C3(CC(=O)[O-])Cc4cc(F)c(F)cc4C3)nc2cc1OCCC[N+](C)(C)CCO` [Example 21, 2-[5,6-difluoro-2-[[5-[3-[2-hydroxyethyl(dimethyl)ammonio]propoxy]-6-methoxy-1,3-benzothiazol-2-yl]methylcarbamoyl]indan-2-yl]acetate] was less than 50 nM; that for `COc1cc2sc(CNC(=O)C3(CC(=O)[O-])Cc4ccccc4C3)nc2cc1OCCC[N+](C)(CCO)CCO` [Example 22, 2-[2-[[5-[3-[bis(2-hydroxyethyl)-methyl-ammonio]propoxy]-6-methoxy-1,3-benzothiazol-2-yl]methylcarbamoyl]indan-2-yl]acetate] was less than 50 nM; that for `COc1cc2sc(CNC(=O)C3(CC(=O)[O-])Cc4cc(F)c(F)cc4C3)nc2cc1OCCC[N+](C)(CCO)CCO` [Example 23, 2-[2-[[5-[3-[bis(2-hydroxyethyl)-methyl-ammonio]propoxy]-6-methoxy-1,3-benzothiazol-2-yl]methylcarbamoyl]-5,6-difluoro-indan-2-yl]acetate] was less than 50 nM.
For `COc1cc2sc(CNC(=O)C3(CC(=O)O)Cc4ccccc4C3)nc2cc1C(=O)N1CCN(C)CC1` [Example 33, 2-[2-[[6-methoxy-5-(4-methylpiperazine-1-carbonyl)-1,3-benzothiazol-2-yl]methylcarbamoyl]indan-2-yl]acetic Acid], the Ki was less than 50 nM.
On to `COc1cc2sc(CNC(=O)C3(CC(=O)O)Cc4ccccc4C3)nc2cc1C(=O)N1CC(N(C)C)C1` [Example 36, 2-[2-[[5-[3-(dimethylamino)azetidine-1-carbonyl]-6-methoxy-1,3-benzothiazol-2-yl]methylcarbamoyl]indan-2-yl]acetic Acid], for which the Ki was less than 50 nM.
As to `COc1cc2sc(CNC(=O)C3(CC(=O)O)Cc4cc(F)c(F)cc4C3)nc2cc1C(=O)N1CC(N(C)C)C1` [Example 37, 2-[2-[[5-[3-(dimethylamino)azetidine-1-carbonyl]-6-methoxy-1,3-benzothiazol-2-yl]methylcarbamoyl]-5,6-difluoro-indan-2-yl]acetic Acid], the Ki was less than 50 nM.
Take `COc1cc2sc(CNC(=O)C3(CC(=O)[O-])Cc4cc(F)c(F)cc4C3)nc2cc1OCC1CC[N+](C)(C)CC1` [Example 44, 2-[2-[[5-[(1,1-dimethylpiperidin-1-ium-4-yl)methoxy]-6-methoxy-1,3-benzothiazol-2-yl]methylcarbamoyl]-5,6-difluoro-indan-2-yl]acetate]: the Ki was less than 50 nM.

The test system of another assay is Pseudomonas aeruginosa (PAO1). Briefly: Mouse model of Pseudomonas aeruginosa lung infection. The assay is classed as in vivo. Conditions: mice infected with wild-type PAO1, intravenous 10 and 30 mg/kg at 1 h and 2 h post infection, 24 hours post infection (FIG. 2). Here is the method: Mice were dosed by intranasal inoculation of PA (PAO1), then sacrified after 24 hours. The extent of infection in the lung was quantified by bacterial load (CFU determination, colony forming units) and the levels of proinflammatory IL-1β. Statistical analysis on both readouts were performed by ANOVA with a Dunnett post-test.
Compounds were administered intravenously in a two-dose regimen (1 hour and 2 hours post infection) at two different doses (10 and 30 mg/kg).
On to `COc1cc2sc(CNC(=O)C3(CC(=O)[O-])Cc4cc(F)c(F)cc4C3)nc2cc1OCCC[N+](C)(CCO)CCO` [Example 23, 2-[2-[[5-[3-[bis(2-hydroxyethyl)-methyl-ammonio]propoxy]-6-methoxy-1,3-benzothiazol-2-yl]methylcarbamoyl]-5,6-difluoro-indan-2-yl]acetate], for which the “production and activation of IL-1β in the lung” value is “inhibited the production and activation of IL-1β in mice infected by wild-type PA (PA01) at a similar level than the lasB deleted mutant”.

The assay is the same for the next values; noted with them: mice infected with wild-type PAO1, intravenous 10 and 30 mg/kg at 1 h and 2 h post infection, 24 hours post infection (FIG. 3).
With `COc1cc2sc(CNC(=O)C3(CC(=O)[O-])Cc4cc(F)c(F)cc4C3)nc2cc1OCCC[N+](C)(CCO)CCO` [Example 23, 2-[2-[[5-[3-[bis(2-hydroxyethyl)-methyl-ammonio]propoxy]-6-methoxy-1,3-benzothiazol-2-yl]methylcarbamoyl]-5,6-difluoro-indan-2-yl]acetate], the “extent of infection in the lung (CFU levels)” value is reported as “reduced the extent of infection in the lung to the level of the LasB deleted mutant”.

Source of the values: US12247013B2, “Indane derivatives for use in the treatment of bacterial infection” (priority 2018, dated 2025).
